Converted amounts (≈) assume the structure as drawn.
Legend:
[1] = target: EGFR tyrosine kinase (Homo sapiens, UniProt P00533); experiment: In vitro tyrosine kinase assay: substrate phosphorylation by EGFR, cell-free; assay type: biochemical; settings: FIG. 3
[2] = target: T1, IR tyrosine kinase (Homo sapiens, UniProt P06213); experiment: In vitro tyrosine kinase assay: substrate phosphorylation by IR, cell-free; assay type: biochemical; settings: FIG. 3
T1 construct: Immunoprecipitated IR from HepG2; endogenous in cells; host or cells: HepG2 hepatoma cells (immunoprecipitate)
Procedure: (§1) IGF-1R-catalyzed substrate phosphorylation of polyTyrGlu (pTG) was performed essentially as previously described [Parrizas M., et al., ibid., and Blum G., et al., ibid.]. Immunoprecipitated IR from HepG2, IGF-1R from P6 cell extract and immunodepleted supernatant to assay non-IGF-1R tyrosine kinases. The phosphorylated polymer substrate was probed with a purified phosphotyrosine specific monoclonal antibody conjugated to horseradish peroxidase (HARP). Color was developed with HRP chromogenic substrate o-phenylene-diamine dihydrochloride (OPD). The color was quantitated by spectrophotometry (ELISA reader) and reflects the relative amount of tyrosine kinase. The precipitate was immunoblotted with anti-bodies to IGF-1R and IR to verify the presence of the receptor. Serial dilutions were used to assay the optimal conditions with respect to the amount of IGF-1R and IR. The signal was linear for 30 minutes and was a function of IGF-1R concentration up to 75 ng/well. […] After spectrophotometry the IC50 values of inhibitors were determined using the Regression function of Statistica program.
(§2) Therefore we isolated the receptor and determined the effects of picropodophyllin on IGF-1R catalyzed substrate tyrosine phosphorylation and IGF-1R autophosphorylation in-vitro.

[3] = system: non-IGF-1R kinases; experiment: In vitro tyrosine kinase assay: non-IGF-1R kinases (IGF-1R-immunodepleted supernatant); assay type: biochemical; settings: cell-free, FIG. 3
Procedure: as §1, §2

[4] = system: ES-1 (Ewing's sarcoma cells) xenografts; experiment: Tumor growth of ES-1 xenografts in nude mice; assay type: in vivo; settings: 28 mg/kg i.p. daily 4-6 days, then 4-6 days without treatment, FIG. 6
Procedure: (§3) Control mice were treated with the solvent. 3-6 animals were treated in each group.
(§4) Because of the toxicity of podophyllotoxin and deoxypodophyllotoxin, we only used picropodophyllin to analyze effects on tumor xenografts. For this purpose ES-1 (Ewing's sarcoma cells) and BE (melanoma cells) xenografts were established in nude mice. When the ES-1 and BE tumors started growing subcutaneously and were measurable, mice were treated daily with intraperitoneal injections of picropodophyllin (28 mg/kg, which was required for giving an average concentration above 0.05 μM of picropodophyllin in the blood plasma) or 80% DMSO in saline as a carrier for 4-6 days, followed by 4-6 days without treatment. The mice were then killed and the tumors analyzed by an experienced pathologist.

[5] = system: BE (melanoma cells) xenografts; experiment: Tumor growth of BE xenografts in nude mice; assay type: in vivo; settings: 28 mg/kg i.p. daily 4-6 days, then 4-6 days without treatment, FIG. 6
Procedure: as §3, §4

[6] = system: K562/Vcr30 chronic myeloid leukemia cells; experiment: Leukemia cell viability, K562/Vcr30; assay type: cell-based, human; settings: Homo sapiens; K562/Vcr30, 72 h; read-out: IC50 for cell viability
Procedure: (§5) The human chronic myeloid leukemia K562/S and K562/Vcr30 lines and the acute myeloid leukemia cell lines HL60/0 and HL60/Nov were obtained from ATCC. The K562/S and […] are wild type (non-resistant) cells, whereas K562/Vcr30 and HL60/Nov are cytostatic-resistant sublines. All leukemia cell lines were cultured in RPMI 1640 medium supplemented with 10% fetal bovine serum and with 2 mM L-glutamine, benzylpenicillin (100 U/ml) and streptomycin (100 μg/ml). The cells were grown in tissue culture flasks maintained at 95% air/5% CO2 atmosphere at 37° C. in a humidified incubator. For the experiments cells were cultured in 60-mm plastic dishes or 96-well plastic plates.
(§6) Cell proliferation kit II (Roche Inc.) is based on colorimetric change of the yellow tetrazolium salt XTT in orange formazan dye by the respiratory chain of viable cells (Roehm, N W, et al., J Immunol Methods 142:257-265, 1991). Cells seeded at a concentration of 5000/well in 100 μl medium in a 96-well plate were treated with different drugs in the given concentration. After 24 or 48 h the cells were incubated, according to the manufacturer's protocol, with XTT labelling mixture. After 4 h the formazan dye is quantified using a scanning multiwell spectrophotometer with a 495-nm filter. The absorbance is directly correlated with the number of viable cells. The standard absorbance curve was drawn by means of untreated cells seeded at a concentration of from 1000 to 10 000 cells/well with an increasing rate of 1000 cells/well. All standards and experiments were performed in triplicates.
Cells of said cell lines were seeded in 96-well plates (25 000 cells/well, medium volume per well was 100 μl), in […] medium supplemented with fetal calf serum. After 24 h picropodophyllin and the derivatives alpha-apopicropodophyllin and beta-apopicropodo-phyllin were added at different concentrations and the cells were incubated for 72 h. Cell viability was then assayed (see above). […] The results are based on 3 different experiments.
The leukemia cell lines K562/S, […], HL60/0 and HL60/Nov were cultured in 96-well plates as described in Experiment 7. After 24 h, the cells were treated for 72 h with different concentrations of the anti-cancer agent vincristine, with and without co-incubation with 0.05 μM picropodophyllin. […] Cell viability was then assayed. IC50 values for each inhibitor and cell line are shown below (Table 8). The results are based on 3 different experiments.

[7] = system: leukemia cell lines (K562/S, K562/Vcr30, HL60/0 and HL60/Nov); experiment: Leukemia cell viability, summary over the four cell lines; assay type: cell-based, human; settings: 72 h
Procedure: as §5
as §6, with “After 24 or 48 h the cells were incubated, according to the manufacturer's protocol, with XTT labelling mixture.” left out, “All standards and experiments were performed in triplicates.” left out

[8] = Water solubility; assay type: physicochemical
[9] = system: β-tubulin; settings: in vitro; read-out: IC50, binding to β-tubulin; cited from earlier work

T1 sequence (P06213 28-1382): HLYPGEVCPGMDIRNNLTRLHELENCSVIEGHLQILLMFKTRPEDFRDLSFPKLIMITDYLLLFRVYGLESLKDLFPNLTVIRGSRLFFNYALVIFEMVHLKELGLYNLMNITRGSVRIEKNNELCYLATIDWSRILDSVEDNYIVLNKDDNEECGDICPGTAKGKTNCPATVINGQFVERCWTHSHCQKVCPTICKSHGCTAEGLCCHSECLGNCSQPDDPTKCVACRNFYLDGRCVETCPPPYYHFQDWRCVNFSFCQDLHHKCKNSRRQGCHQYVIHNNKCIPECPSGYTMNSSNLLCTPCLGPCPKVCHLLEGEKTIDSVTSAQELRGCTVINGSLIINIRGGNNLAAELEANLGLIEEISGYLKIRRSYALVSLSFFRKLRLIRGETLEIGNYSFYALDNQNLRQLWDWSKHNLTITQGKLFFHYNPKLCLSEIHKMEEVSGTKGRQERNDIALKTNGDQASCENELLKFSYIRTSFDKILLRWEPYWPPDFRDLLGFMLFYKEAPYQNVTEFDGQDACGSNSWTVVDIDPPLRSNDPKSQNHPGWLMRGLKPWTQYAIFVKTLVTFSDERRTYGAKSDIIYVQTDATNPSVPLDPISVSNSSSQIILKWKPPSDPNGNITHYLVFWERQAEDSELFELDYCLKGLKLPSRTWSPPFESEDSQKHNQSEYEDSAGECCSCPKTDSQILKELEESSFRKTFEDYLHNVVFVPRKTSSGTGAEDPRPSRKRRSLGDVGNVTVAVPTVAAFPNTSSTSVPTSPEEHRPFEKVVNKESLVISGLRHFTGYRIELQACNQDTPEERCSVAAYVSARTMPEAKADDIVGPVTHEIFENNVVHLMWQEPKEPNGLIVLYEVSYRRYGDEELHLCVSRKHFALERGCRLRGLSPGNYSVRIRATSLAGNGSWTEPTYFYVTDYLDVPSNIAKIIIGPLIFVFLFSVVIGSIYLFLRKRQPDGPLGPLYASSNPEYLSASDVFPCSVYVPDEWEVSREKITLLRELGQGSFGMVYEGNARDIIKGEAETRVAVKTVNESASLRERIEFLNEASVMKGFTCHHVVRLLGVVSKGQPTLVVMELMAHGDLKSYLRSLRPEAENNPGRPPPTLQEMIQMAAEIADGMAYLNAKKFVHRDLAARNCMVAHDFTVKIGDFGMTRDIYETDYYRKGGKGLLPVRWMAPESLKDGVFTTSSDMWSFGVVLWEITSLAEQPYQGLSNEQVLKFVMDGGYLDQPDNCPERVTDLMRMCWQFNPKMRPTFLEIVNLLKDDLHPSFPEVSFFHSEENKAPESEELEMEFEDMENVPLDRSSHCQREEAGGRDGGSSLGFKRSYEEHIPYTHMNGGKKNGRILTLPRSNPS
Chain of EGFR tyrosine kinase (P00533 25-1210): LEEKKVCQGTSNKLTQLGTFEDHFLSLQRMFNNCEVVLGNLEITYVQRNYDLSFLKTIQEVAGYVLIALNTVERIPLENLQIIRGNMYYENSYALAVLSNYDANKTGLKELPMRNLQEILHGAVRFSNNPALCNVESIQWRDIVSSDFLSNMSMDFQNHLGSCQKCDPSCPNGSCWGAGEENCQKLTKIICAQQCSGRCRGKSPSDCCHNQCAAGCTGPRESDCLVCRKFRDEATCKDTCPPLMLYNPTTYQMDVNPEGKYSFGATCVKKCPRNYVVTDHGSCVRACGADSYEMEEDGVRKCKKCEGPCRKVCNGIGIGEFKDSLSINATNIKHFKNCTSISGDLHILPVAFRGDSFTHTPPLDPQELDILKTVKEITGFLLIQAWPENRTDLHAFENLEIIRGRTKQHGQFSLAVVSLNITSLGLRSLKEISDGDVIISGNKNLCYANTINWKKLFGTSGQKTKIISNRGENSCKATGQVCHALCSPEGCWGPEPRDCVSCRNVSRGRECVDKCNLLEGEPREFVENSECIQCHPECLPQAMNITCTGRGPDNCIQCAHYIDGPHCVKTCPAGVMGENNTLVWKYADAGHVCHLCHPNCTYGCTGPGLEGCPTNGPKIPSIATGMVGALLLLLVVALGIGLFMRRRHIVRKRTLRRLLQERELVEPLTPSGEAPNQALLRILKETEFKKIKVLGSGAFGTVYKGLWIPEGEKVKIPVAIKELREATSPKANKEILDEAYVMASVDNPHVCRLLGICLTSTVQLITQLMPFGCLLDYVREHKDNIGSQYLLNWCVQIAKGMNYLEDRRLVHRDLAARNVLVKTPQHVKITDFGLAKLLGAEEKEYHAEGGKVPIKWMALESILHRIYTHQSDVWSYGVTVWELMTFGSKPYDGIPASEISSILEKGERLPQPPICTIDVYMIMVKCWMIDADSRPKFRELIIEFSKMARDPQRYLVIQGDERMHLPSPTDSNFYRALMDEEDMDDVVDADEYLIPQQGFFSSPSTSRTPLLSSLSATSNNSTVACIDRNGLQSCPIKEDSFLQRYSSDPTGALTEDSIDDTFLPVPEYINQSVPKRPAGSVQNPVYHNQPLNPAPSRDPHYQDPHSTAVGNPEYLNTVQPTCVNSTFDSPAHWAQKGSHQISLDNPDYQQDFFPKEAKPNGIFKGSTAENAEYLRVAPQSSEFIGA

Row | Structure (SMILES) | Interference with substrate phosphorylation of EGFR tyrosine kinase [1] | Interference with substrate phosphorylation of IR tyrosine kinase [2] | Interference with substrate phosphorylation of other non-IGF-1R kinases [3] | Effect on tumor growth [4] | Effect on tumor growth [5] | IC50 [6] [nM] | IC50 ([7]; Homo sapiens, read-out: Concentration needed to cause 50% cell death) [nM] | Cell death in the tumor cells ([7]; leukemia cell lines, 0.05 μM) | solubility [8] [µM] | IC50 [9] [nM]
1 | COc1cc([C@@H]2c3cc4c(cc3[C@H](O)[C@H]3COC(=O)[C@@H]23)OCO4)cc(OC)c1OC [Picropodophyllin, picropodophyllin] | failed to interfere | failed to interfere | failed to interfere | significantly inhibited growth | significantly inhibited growth | […] | 110 to 320 | did not cause any detectable cell death |  | 
